Tests used:
[1] = system: Zucker Diabetic Fatty rats; experiment: Effect of repeated administration on HbA1c in ZDF rats; type: in vivo, rat; settings: 1 mg/kg oral once daily, day 14 of administration, mean ± S.D. (n = 10), *p < 0.05 vs. vehicle group
Method: Zucker Diabetic Fatty rats (male, 7-week-old, CHARLES RIVER LABORATORIES JAPAN INC.), an animal model for type 2 diabetes, given a purified diet (5.9% fat diet, Oriental Yeast Co., Ltd.) were allocated to the vehicle group and the test compound groups so that no bias occurred in the plasma glucose and insulin levels, HbAlc levels and body weights. Repeated oral doses of the test compound (1 mg/kg/5 mL) were administered to the rats once daily at 3 hr before the dark period. A 0.5% aqueous methylcellulose solution was orally administered in the same manner to the rats of the vehicle group. On day 14 of administration, blood samples were collected from the tail vein and HbAlc level (%) was measured. Statistical analysis was performed by Dunnett's test. Values of p<0.05 were cosidered statistically significant.

human PDHK2 (hPDHK2) = human PDHK2 (hPDHK2) (Homo sapiens (Human), UniProt Q15119); experiment: Inhibitory action of PDHK2 activity in vitro (residual PDH activity after kinase reaction); type: biochemical
Method: (§1) The inhibitory action of PDHK activity was assessed indirectly by measuring the residual PDH activity after kinase reaction in the presence of a test compound.
In the case of human PDHK2 (hPDHK2, Genbank Accession No. BC040478.1), modified hPDHK2 cDNA wherein FLAG-Tag sequence was added to the N terminus of hPDHK2 cDNA clone (pReceiver-M01/PDK2-GeneCopoeia) was prepared by PCR and cloned into a vector (pET17b-Novagen). The recombinant construct was transformed into Escherichia coli (DH5α-TOYOBO). The recombinant clones were identified, and plasmid DNA was isolated and subjected to the DNA sequence analysis. One clone which had the expected nucleic acid sequence was selected for expression work.
For expression of hPDHK2 activity, Escherichia coli strain BL21(DE3) cells (Novagen) were transformed with the pET17b vector containing modified hPDHK2 cDNA. The Escherichia coli were grown to an optical density 0.6 ([…]) at 30° C. Protein expression was induced by the addition of 500 μmol/L isopropyl-β-thiogalactopyranoside. The Escherichia coli were cultured at 30° C. for 5 hr and harvested by centrifugation. Resuspension of the Escherichia coli paste was disrupted by a microfluidizer. FLAG-Tagged protein was purified using FLAG affinity gel. […]
0.05 U/mL PDH and 0.8 μg/mL hPDHK2 were mixed in a buffer (50 mmol/L 3-morpholinopropanesulfonic acid (pH 7.0), 20 mmol/L dipotassium hydrogen phosphate, 60 mmol/L potassium chloride, 2 mmol/L magnesium chloride, 0.4 mmol/L EDTA, and 0.2% Pluronic F-68, 2 mmol/L dithiothreitol), and the mixture was incubated at 4° C. overnight to obtain a PDH/hPDHK2 complex. […] The mixture was incubated at room temperature for 90 min, and the residual PDH activity was measured. The absorbance at 340 nm before and after PDH reaction was measured using a microplate reader to detect NADH produced by the PDH reaction. The hPDHK2 inhibition rate (%) of the test compound was calculated from the formula [{(PDH activity of test compound−PDH activity of control)/PDH activity of blank−PDH activity of control)}×100].

human PDHK1 (hPDHK1) = human PDHK1 (hPDHK1) (Homo sapiens (Human), UniProt Q15118); experiment: Inhibitory action of PDHK1 activity in vitro (residual PDH activity after kinase reaction); type: biochemical
Sequence of human PDHK1 (hPDHK1) (Q15118 29-436): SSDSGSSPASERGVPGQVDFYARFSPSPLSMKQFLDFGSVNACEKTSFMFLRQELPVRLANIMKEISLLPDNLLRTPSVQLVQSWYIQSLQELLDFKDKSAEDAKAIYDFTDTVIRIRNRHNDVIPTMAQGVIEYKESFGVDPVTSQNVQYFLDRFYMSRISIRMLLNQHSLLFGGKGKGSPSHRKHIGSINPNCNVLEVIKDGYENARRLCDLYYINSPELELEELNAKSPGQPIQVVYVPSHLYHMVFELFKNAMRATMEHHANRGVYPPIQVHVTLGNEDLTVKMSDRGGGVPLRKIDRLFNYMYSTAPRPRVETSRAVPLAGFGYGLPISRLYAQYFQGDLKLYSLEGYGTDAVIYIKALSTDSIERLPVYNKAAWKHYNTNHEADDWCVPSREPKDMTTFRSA
Method: as §1
The recombinant construct was transformed into Escherichia coli (DH5α-TOYOBO). The recombinant clones were identified, and plasmid DNA was isolated and subjected to the DNA sequence analysis. One clone which had the expected nucleic acid sequence was selected for expression work.
The Escherichia coli were grown to an optical density 0.6 ([…]) at 30° C. Protein expression was induced by the addition of 500 μmol/L isopropyl-β-thiogalactopyranoside. The Escherichia coli were cultured at 30° C. for 5 hr and harvested by centrifugation. Resuspension of the Escherichia coli paste was disrupted by a microfluidizer.
The eluted fractions containing FLAG-Tagged protein were pooled, dialyzed against 20 mmol/L HEPES-NaOH, 150 mmol/L sodium chloride, 0.5 mmol/L ethylenediamine tetraacetic acid (EDTA), 1% ethylene glycol, and 0.1% Pluronic F-68 (pH 8.0), and preserved at −80° C.
The mixture was incubated at room temperature for 90 min, and the residual PDH activity was measured.
The absorbance at 340 nm before and after PDH reaction was measured using a microplate reader to detect NADH produced by the PDH reaction.

`CC(C)(O)CCOc1cc(-c2cnn(C(C)(C)C(N)=O)c2)c2c(c1)[C@@](O)(C(F)(F)F)c1ccccc1-2` [Compound (2), 2-{4-[(9R)-9-hydroxy-2-(3-hydroxy-3-methylbutyloxy)-9-(trifluoromethyl)-9H-fluoren-4-yl]-1H-pyrazol-1-yl}-2-methylpropanamide] was tested, and the “HbA1c (%)” value [1] was 3.2 ± 0.1* %, the IC50 (human PDHK2 (hPDHK2)) was 4.6 nM and the IC50 (human PDHK1 (hPDHK1)) was 4.7 nM.
`CC(C)(O)CCCOc1cc(-c2cnn(C(C)(C)C(N)=O)c2)c2c(c1)[C@@](O)(C(F)(F)F)c1ccccc1-2` [Compound (3), 2-{4-[(9R)-9-hydroxy-2-(4-hydroxy-4-methylpentyloxy)-9-(trifluoromethyl)-9H-fluoren-4-yl]-1H-pyrazol-1-yl}-2-methylpropanamide] was tested, and the “HbA1c (%)” value [1] was 3.4 ± 0.1* %, the IC50 (human PDHK2 (hPDHK2)) was 4.2 nM and the IC50 (human PDHK1 (hPDHK1)) was 3.5 nM.
